The record followed here is patent US20120214822A1 (ASTRAZENECA AB, priority 2007, published 2012).

Counter-ions that a name gives are not always drawn.

The target of this test is human active recombinant p38α-6His tagged (Homo sapiens, UniProt Q16539). The test can be described thus: P38 Alpha Enzyme Assay (AlphaScreen, biotinylated-ATF2 substrate).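 Further: 0.5 nM final p38α, reaction started with ATP and run 45 min at 37 °C, phospho-ATF2 read by antibody-based AlphaScreen, background wells quenched with EDTA before ATP.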 It is filed as biochemical. As to conditions: p38 alpha enzyme inhibition; means of replicate determinations; 4 h pre-incubation at 37° C.; SD of assay 0.2-0.3 log units. For orientation: Alpha assays give light when donor and acceptor beads are brought close together.
human active recombinant p38α-6His tagged, sequence (Q16539 whole entry): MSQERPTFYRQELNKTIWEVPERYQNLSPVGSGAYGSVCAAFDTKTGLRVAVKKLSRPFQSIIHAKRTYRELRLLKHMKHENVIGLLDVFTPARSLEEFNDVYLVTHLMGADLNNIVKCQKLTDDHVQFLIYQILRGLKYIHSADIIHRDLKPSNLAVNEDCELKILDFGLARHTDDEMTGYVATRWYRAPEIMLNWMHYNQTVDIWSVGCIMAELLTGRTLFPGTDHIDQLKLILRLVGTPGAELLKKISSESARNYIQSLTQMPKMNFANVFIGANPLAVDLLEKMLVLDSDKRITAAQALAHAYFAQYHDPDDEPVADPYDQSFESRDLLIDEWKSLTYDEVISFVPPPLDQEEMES
In the case of `CCNC[C@H](O)COc1ccccc1C1(Nc2nccn(-c3cc(C(=O)NC4CC4)ccc3C)c2=O)CC1` [Example 303, N-cyclopropyl-3-[3-{[1-(2-{[(2S)-3-(ethylamino)-2-hydroxypropyl]oxy}phenyl)cyclopropyl]amino}-2-oxopyrazin-1(2H)-yl]-4-methylbenzamide], the pIC50 – broadly, the negative decadic logarithm of the IC50, by convention in mol/L – worked out at 10.1.

In the case of `CNC[C@H](O)COc1ccccc1C1(Nc2nccn(-c3cc(C(=O)NC4CC4)ccc3C)c2=O)CC1` [Example 304, N-Cyclopropyl-3-[3-{[1-(2-{[(2S)-2-hydroxy-3-(methylamino)propyl]oxy}phenyl)cyclopropyl]amino}-2-oxopyrazin-1(2H)-yl]-4-methylbenzamide], the pIC50 worked out at 10.2.

As to `Cc1ccc(C(=O)NC2CC2)cc1-n1ccnc(NC(C)(C)c2ccccc2OC[C@H](N)CO)c1=O` [Example 305, 3-[3-{[1-(2-{[(2R)-2-Amino-3-hydroxypropyl]oxy}phenyl)-1-methylethyl]amino}-2-oxopyrazin-1(2H)-yl]-N-cyclopropyl-4-methylbenzamide], the pIC50 came out at 9.9.

For the compound `Cc1ccc(C(=O)NC2CC2)cc1-n1ccnc(NC(C)(C)c2ccccc2OC[C@@H](CO)N(C)C)c1=O` [Example 306, N-Cyclopropyl-3-[3-{[1-(2-{[(2R)-2-(dimethylamino)-3-hydroxypropyl]oxy}phenyl)-1-methylethyl]amino}-2-oxopyrazin-1(2H)-yl]-4-methylbenzamide], the pIC50 came out at 10.1.

For `CNC[C@@H](O)COc1ccccc1C(C)(C)Nc1nccn(-c2cc(C(=O)NC3CC3)cc(F)c2C)c1=O` [Example 307, N-Cyclopropyl-3-fluoro-5-[3-{[1-(2-{[(2R)-2-hydroxy-3-(methylamino)propyl]oxy}phenyl)-1-methylethyl]amino}-2-oxopyrazin-1(2H)-yl]-4-methylbenzamide], the pIC50 was 10.3.

On to `CCNC[C@@H](O)COc1ccccc1C(C)(C)Nc1nccn(-c2cc(C(=O)NC3CC3)cc(F)c2C)c1=O` [Example 308, N-Cyclopropyl-3-[3-{[1-(2-{[(2R)-3-(ethylamino)-2-hydroxypropyl]oxy}phenyl)-1-methylethyl]amino}-2-oxopyrazin-1(2H)-yl]-5-fluoro-4-methylbenzamide], for which the pIC50 is recorded as 10.4.

Consider `CCNC[C@H](O)COc1ccccc1C(C)(C)Nc1nccn(-c2cc(C(=O)NC3CC3)cc(F)c2C)c1=O` [Example 309, N-Cyclopropyl-3-[3-{[1-(2-{[(2S)-3-(ethylamino)-2-hydroxypropyl]oxy}phenyl)-1-methylethyl]amino}-2-oxopyrazin-1(2H)-yl]-5-fluoro-4-methylbenzamide], for which the pIC50 is on record as 10.2.

For the compound `CNC[C@H](O)COc1ccccc1C(C)(C)Nc1nccn(-c2cc(C(=O)NC3CC3)cc(F)c2C)c1=O` [Example 310, N-Cyclopropyl-3-fluoro-5-[3-{[1-(2-{[(2S)-2-hydroxy-3-(methylamino)propyl]oxy}phenyl)-1-methylethyl]amino}-2-oxopyrazin-1(2H)-yl]-4-methylbenzamide], the pIC50 stood at 10.

Regarding `Cc1c(F)cc(C(=O)NC2CC2)cc1-n1ccnc(NC(C)(C)c2ccccc2OCCN)c1=O` [Example 311, 3-[3-({1-[2-(2-Aminoethoxy)phenyl]-1-methylethyl}amino)-2-oxopyrazin-1(2H)-yl]-N-cyclopropyl-5-fluoro-4-methylbenzamide], the pIC50 is listed as 10.1.

In the case of `Cc1c(F)cc(C(=O)NC2CC2)cc1-n1ccnc(NC(C)(C)c2ccccc2OCCNCC(=O)O)c1=O` [Example 312, N-(2-{2-[1-({4-[5-(Cyclopropylcarbamoyl)-3-fluoro-2-methylphenyl]-3-oxo-3,4-dihydropyrazin-2-yl}amino)-1-methylethyl]phenoxy}ethyl)glycine], the pIC50 worked out at 9.8.

Take `Cc1c(F)cc(C(=O)NC2CC2)cc1-n1ccnc(NC(C)(C)c2ccccc2OCCNCCC(=O)O)c1=O` [Example 313, N-(2-{2-[1-({4-[5-(Cyclopropylcarbamoyl)-3-fluoro-2-methylphenyl]-3-oxo-3,4-dihydropyrazin-2-yl}amino)-1-methylethyl]phenoxy}ethyl)-beta-alanine]: the pIC50 came out at 9.9.

In the case of `Cc1c(F)cc(C(=O)NC2CC2)cc1-n1ccnc(NC2(c3ccccc3OCCN)CC2)c1=O` [Example 314, 3-[3-({1-[2-(2-Aminoethoxy)phenyl]cyclopropyl}amino)-2-oxopyrazin-1(2H)-yl]-N-cyclopropyl-5-fluoro-4-methylbenzamide], the pIC50 is listed as 10.4.

Regarding `Cc1c(F)cc(C(=O)NC2CC2)cc1-n1ccnc(NC2(c3ccccc3OCCN(C)CCO)CC2)c1=O` [Example 315, N-Cyclopropyl-3-fluoro-5-[3-{[1-(2-{2-[(2-hydroxyethyl)(methyl)amino]ethoxy}phenyl)cyclopropyl]amino}-2-oxopyrazin-1(2H)-yl]-4-methylbenzamide], the pIC50 is on record as 10.

As for `CNCCOc1ccccc1C(C)(C)Nc1nccn(-c2cc(C(=O)NOC)cc(F)c2C)c1=O` [Example 316, 3-Fluoro-N-methoxy-4-methyl-5-{3-[(1-methyl-1-{2-[2-(methylamino)ethoxyl]phenyl}ethyl)amino]-2-oxopyrazin-1(2H)-yl}benzamide], the pIC50 stood at 10.4.

In the case of `CNCCOc1ccccc1C1(Nc2nccn(-c3cc(C(=O)NOC)ccc3C)c2=O)CC1` [Example 317, N-Methoxy-4-methyl-3-{3-[(1-{2-[2-(methylamino)ethoxy]phenyl}cyclopropyl)amino]-2-oxopyrazin-1(2H)-yl}benzamide], the pIC50 is given as 10.1.

On to `CCNCCOc1ccccc1C1(Nc2nccn(-c3cc(C(=O)NC4CC4)c(F)cc3C)c2=O)CC1` [Example 318, N-cyclopropyl-5-{3-[(1-{2-[2-(ethylamino)ethoxy]phenyl}cyclopropyl)amino]-2-oxopyrazin-1(2H)-yl}-2-fluoro-4-methylbenzamide], for which the pIC50 amounted to 8.2.

For `CNCCOc1ccccc1C1(Nc2nccn(-c3cc(C(=O)NC4CC4)c(F)cc3C)c2=O)CC1` [Example 319, N-Cyclopropyl-2-fluoro-4-methyl-5-{3-[(1-{2-[2-(methylamino)ethoxy]phenyl}cyclopropyl)amino]-2-oxopyrazin-1(2H)-yl}benzamide], the pIC50 amounted to 8.1.

For `CNCCSc1ccccc1C(C)(C)Nc1nccn(-c2cc(C(=O)NC3CC3)cc(F)c2C)c1=O` [Example 320, N-Cyclopropyl-3-fluoro-4-methyl-5-[3-{[1-methyl-1-(2-{[2-(methylamino)ethyl]sulfanyl}phenyl)ethyl]amino}-2-oxopyrazin-1(2H)-yl]benzamide], the negative logarithm of the IC50 (pIC50) was 9.5.

As for `Cc1c(F)cc(C(=O)NC2CC2)cc1-n1ccnc(NC(C)(C)c2ccccc2SCCN)c1=O` [Example 321, 3-{3-[(1-{2-[(2-Aminoethyl)sulfanyl]phenyl}-1-methylethyl)amino]-2-oxopyrazin-1(2H)-yl}-N-cyclopropyl-5-fluoro-4-methylbenzamide], the pIC50 was determined as 9.7.

With `Cc1c(F)cc(C(=O)NC2CC2)cc1-n1ccnc(NC(C)(C)c2ccccc2SCCNCCO)c1=O` [Example 322, N-Cyclopropyl-3-fluoro-5-[3-({1-[2-({2-[(2-hydroxyethyl)amino]ethyl}sulfanyl)phenyl]-1-methylethyl}amino)-2-oxopyrazin-1(2H)-yl]-4-methylbenzamide], the pIC50 was 9.8.

In the case of `CNCCCc1ccccc1C(C)(C)Nc1nccn(-c2cc(C(=O)NC3CC3)cc(F)c2C)c1=O` [Example 323, N-Cyclopropyl-3-fluoro-4-methyl-5-{3-[(1-methyl-1-{2-[3-(methylamino)propyl]phenyl}ethyl)amino]-2-oxopyrazin-1(2H)-yl}benzamide], the pIC50 is recorded as 9.5.

On to `CNCCCOc1ccccc1C1CCCN1c1nccn(-c2cc(C(=O)NC3CC3)ccc2C)c1=O` (stereo not shown) [Example 324, N-Cyclopropyl-4-methyl-3-[3-(2-{2-[3-(methylamino)propoxy]phenyl}pyrrolidin-1-yl)-2-oxopyrazin-1(2H)-yl]benzamide], for which the pIC50 is 8.1.

With `CNCCOc1ccccc1C1CCCN1c1nccn(-c2cc(C(=O)NC3CC3)ccc2C)c1=O` (stereo not shown) [Example 327, N-Cyclopropyl-4-methyl-3-[3-(2-{2-[2-(methylamino)ethoxy]phenyl}pyrrolidin-1-yl)-2-oxopyrazin-1(2H)-yl]benzamide Trifluoroacetate salt], the pIC50 was found to be 8.

Regarding `Cc1c(F)cc(C(=O)NC2CC2)cc1-n1ccnc(N[C@@H](c2ccccc2)[C@@H](C)CN2CCCC2)c1=O` [Example 328, N-Cyclopropyl-3-fluoro-4-methyl-5-[3-{[(1R,2S)-2-methyl-1-phenyl-3-pyrrolidin-1-ylpropyl]amino}-2-oxopyrazin-1(2H)-yl]benzamide], the pIC50 came out at 9.

With `Cc1c(F)cc(C(=O)NC2CC2)cc1-n1ccnc(N[C@@H](c2ccccc2)[C@@H](C)CN2CCCCC2)c1=O` [Example 329, N-Cyclopropyl-3-fluoro-4-methyl-5-[3-{[(1R,2S)-2-methyl-1-phenyl-3-piperidin-1-ylpropyl]amino}-2-oxopyrazin-1(2H)-yl]benzamide], the negative logarithm of the IC50 (pIC50) is recorded as 9.6.

For `CNCCOc1ccccc1C(C)(C)Nc1nccn(-c2cc(C(=O)NC3CC3)ccc2Cl)c1=O` [Example 330, 4-Chloro-N-cyclopropyl-3-[3-[(1-methyl-1-{2-[2-(methylamino)ethoxy]phenyl}ethyl)amino]-2-oxopyrazin-1(2H)-yl]benzamide], the pIC50 is 9.4.

In the case of `CC(C)(Nc1nccn(-c2cc(C(=O)NC3CC3)ccc2Cl)c1=O)c1ccccc1OCCNCCO` [Example 331, 4-Chloro-N-cyclopropyl-3-[3-{[1-(2-{2-[(2-hydroxyethyl)amino]ethoxy}phenyl)-1-methylethyl]amino}-2-oxopyrazin-1(2H)-yl]benzamide], the pIC50 is reported as 9.6.

Regarding `C[C@@H](O)CNCCOc1ccccc1C(C)(C)Nc1nccn(-c2cc(C(=O)NC3CC3)ccc2Cl)c1=O` [Example 332, 4-Chloro-N-cyclopropyl-3-[3-({1-[2-(2-{[(2R)-2-hydroxypropyl]amino}ethoxy)phenyl]-1-methylethyl}amino)-2-oxopyrazin-1(2H)-yl]benzamide], the pIC50 is recorded as 9.7.
